The record followed here is ChEMBL document CHEMBL1134824, “Beta-D-glycosylamidines: potent, selective, and easily accessible 1-glycosidase inhibitors” (Bioorg Med Chem Lett, 2001).

The nature of data set [1]: Compound was evaluated for the selective and competitive inhibition of Alpha-glucosidase from Yeast at 2.5 mM. On the set-up: species or system Saccharomyces cerevisiae.
Data set [2] is described as follows: Compound was evaluated for the selective and competitive inhibition of Alpha-glucosidase from Aspergillus niger at 2.5 mM; NI = No inhibition.
Data set [3] in a line: Compound was evaluated for the selective and competitive inhibition of Alpha-glucosidase from Bacillus sp. at 2.5 mM; NI = No inhibition.
Data set [4] in a line: Compound was evaluated for the selective and competitive inhibition of Beta-glucosidase from Trichoderma viride.
Data set [5] is described as follows: Compound was evaluated for the selective and competitive inhibition of Beta-glucosidase from Almond. On the set-up: species or system Prunus dulcis.
A short description of data set [6]: Compound was evaluated for the selective and competitive inhibition of Beta-galactosidase from Escherichia coli at 2.5 mM; NI = No inhibition.
The nature of data set [7]: Compound was evaluated for the selective and competitive inhibition of Beta-galactosidase from Aspergillus oryzae at 2.5 mM; NI = No inhibition.
Data set [8] is described as follows: Compound was evaluated for the selective and competitive inhibition of Beta-galactosidase from Aspergillus pulverulentus.
The nature of data set [9]: Compound was evaluated for the selective and competitive inhibition of beta-glucosidase from Aspergillus niger.
Data set [10] in a line: Compound was evaluated for the basicity, pKa of the conjugate acids. In kind it is physicochemical.
Data set [11] is described as follows: Compound was evaluated for the selective and competitive inhibition of Alpha-glucosidase from Yeast. On the set-up: species or system Saccharomyces cerevisiae.
Data set [12] is described as follows: Compound was evaluated for the selective and competitive inhibition of Alpha-glucosidase from Aspergillus niger.
Data set [13] can be described thus: Compound was evaluated for the selective and competitive inhibition of Beta-glucosidase from Almond at 2.5 mM; NI = No inhibition. On the set-up: species or system Prunus dulcis.
Data set [14] in a line: Compound was evaluated for the selective and competitive inhibition of Beta-galactosidase from Escherichia coli.
Data set [15] has as its target T1, Exo-1,4-beta-xylosidase xlnD (Aspergillus niger, UniProt O00089).
T1 sequence (O00089 whole entry): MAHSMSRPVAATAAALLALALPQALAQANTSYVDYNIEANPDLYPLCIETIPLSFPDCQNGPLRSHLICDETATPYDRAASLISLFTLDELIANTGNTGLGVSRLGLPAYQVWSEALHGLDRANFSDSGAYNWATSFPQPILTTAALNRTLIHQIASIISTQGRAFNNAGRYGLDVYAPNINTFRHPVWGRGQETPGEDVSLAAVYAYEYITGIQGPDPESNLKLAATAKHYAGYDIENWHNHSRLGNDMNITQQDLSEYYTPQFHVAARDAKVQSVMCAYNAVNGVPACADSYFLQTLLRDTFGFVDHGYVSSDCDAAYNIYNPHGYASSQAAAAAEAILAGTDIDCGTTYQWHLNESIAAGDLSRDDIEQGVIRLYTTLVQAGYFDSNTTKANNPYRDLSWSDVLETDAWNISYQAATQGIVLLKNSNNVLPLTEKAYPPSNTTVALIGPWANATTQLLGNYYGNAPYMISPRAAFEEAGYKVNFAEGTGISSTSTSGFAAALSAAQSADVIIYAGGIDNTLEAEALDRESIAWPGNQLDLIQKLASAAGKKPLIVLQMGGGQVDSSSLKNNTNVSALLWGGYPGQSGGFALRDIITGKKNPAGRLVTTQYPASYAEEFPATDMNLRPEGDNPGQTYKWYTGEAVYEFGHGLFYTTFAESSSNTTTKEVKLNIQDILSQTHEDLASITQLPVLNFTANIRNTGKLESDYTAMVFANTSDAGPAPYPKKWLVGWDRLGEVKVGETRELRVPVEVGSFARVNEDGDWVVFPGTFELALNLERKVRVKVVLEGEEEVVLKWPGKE
Description: Compound was evaluated for the selective and competitive inhibition of beta-xylosidase from A. pulverulentus; NI = No inhibition at 2.5 mM. Further details: species or system Aspergillus pulverulentus; call rule not given here.

Data set [16] is described as follows: Compound was evaluated for the selective and competitive inhibition of Beta-glucosidase from Aspergillus niger.
A short description of data set [17]: Compound was evaluated for the selective and competitive inhibition of Alpha-glucosidase from Bacillus sp.
Data set [18] can be described thus: Compound was evaluated for the selective and competitive inhibition of Beta-xylosidase from Aspergillus pulverulentus at 2.5 mM; NI = No inhibition.
A short description of data set [19]: Compound was evaluated for the selective and competitive inhibition of Alpha-glucosidase from Yeast at 2.5 mM; NI = No inhibition. Further details: species or system Saccharomyces cerevisiae.
A short description of data set [20]: Compound was evaluated for the selective and competitive inhibition of Beta-galactosidase from Aspergillus oryzae.
Data set [21] deals with T1, Exo-1,4-beta-xylosidase xlnD. As to the kind of experiment: Compound was evaluated for the selective and competitive inhibition of Beta-xylosidase from Aspergillus pulverulentus.

As for `Br.N=C(Cc1ccccc1)NC1OCC(O)C(O)C1O` (centres undefined), the Ki (as a rule, the dissociation constant of the complex between target and ligand, obtained from inhibition or displacement) in data set [1] was “No inhibition”; in data set [2], “Not Active”; in data set [3] it was “Not Active”; in [4], 13 µM; in data set [5], 1100 µM; in data set [6], “Not Active”. Moreover, the values for the Ki result in [7], in [8] and in data set [9] were “Not Active”, 2.5 µM and 11 µM, respectively.
`NC1OCC(O)C(O)C1O` (centres undefined): the pKa (as a rule, the pH at which an ionisable group is half protonated) in data set [10] turned out to be 5.6.
Consider `O=C(Cc1ccccc1)NC1OC(CO)C(O)C(O)C1O` (centres undefined), for which the Ki in data set [11] was above 2500 µM; in data set [3] it was “Not Active”; in data set [12] it was above 2500 µM; in data set [4], 770 µM; in data set [13], “Not Active”; in data set [14], above 2000 µM. Also, the Ki result in [7] is “Not Active”; in data set [15], “No inhibition”; in data set [16] it was 770 µM.
As to `NC1OC(CO)C(O)C(O)C1O` (centres undefined), the pKa in [10] is 5.6.
In the case of `Br.N=C(Cc1ccccc1)NC1OC(CO)C(O)C(O)C1O` (stereo in doubt; 1a), the Ki is 21 µM in data set [11]; “Not Active” in [2]; above 2500 µM in data set [17]; above 2500 µM in data set [12]; 0.13 µM in data set [4]; 73 µM in data set [5]. Besides, the Ki entry in [6] was “Not Active”; in data set [7] it was “Not Active”; in data set [18], “Not Active”; in [16], 0.094 µM.
Regarding `Br.N=C(Cc1ccccc1)NC1OC(CO)C(O)C(O)C1O` (stereo in doubt; 1b), the Ki entry is “Not Active” in data set [19]; “Not Active” in data set [3]; 47 µM in data set [12]; 390 µM in data set [4]; 41 µM in data set [5]; 7.8 µM in data set [14]. The Ki in [20] was 2.4 µM; in data set [21] it was 1000 µM; in data set [16] it was 390 µM.
